Experimental data: patent US7550425B2, “Diuretic peptide conjugates” (Zealand Pharma A/S, priority 2000, dated 2009)
Like-named read-outs stand apart in the source and are kept apart here.

How the values were obtained:
[1] = In vitro stability in heparin stabilised mouse plasma; assay type: in vitro ADME; details: heparinised mouse plasma, 37° C., read-out: half-life t½ of degradation
Method: Degradation of peptides is almost exclusively seen in the presence of enzymes, e.g. in the bloodstream. An important feature of a putative drug is whether it is quickly degraded in vivo or whether it is able to conduct its effects over a longer period of time. To be able to examine the stability of the peptide conjugates of the present invention degradation was tested in heparin stabilised mouse plasma (obtained from Harlan Seralab, UK).
The stability studies were run in triplicate. 100 μL of a 1 mg/mL solution of the test compound (peptide conjugate) was added to an Eppendorf tube, containing 900 μL plasma, incubated at 37° C. Immediately after addition, a sample of 100 μL was removed and added to an Eppendorf tube, containing 10 μL of extraction solution (50% TFA (trifluoroacetic acid) in MeCN, v/v). This sample constitutes t=0. […] The samples are centrifuged at 20,000×g, and the supernatant was transferred to vials and analysed by high-performance liquid chromatography (HPLC).
The analysis was performed on a HP1100 HPLC with a quaternary pump. The column used was a Vydac 201SP5215, and the apparatus comprises an autosampler, a column oven, a variable UV detector and a fluorescence detector. […] These values were transferred to Microsoft Excel, where half-lives (t½) and rate constant (kobs) for Ac-RYYRWK-NH2 (SEQ ID NO: 1) and Compound 1 were determined by fitting to the equation.

hORL1 receptor = hORL1 receptor (Homo sapiens, UniProt P41146); assay: Inhibition of forskoline-induced cAMP formation in HEK293 cells expressing human ORL1; assay type: cell-based; design: expressed in transfected cells; host or cells: HEK293; details: transfected HEK293 cells
Sequence of hORL1 receptor (P41146 whole entry): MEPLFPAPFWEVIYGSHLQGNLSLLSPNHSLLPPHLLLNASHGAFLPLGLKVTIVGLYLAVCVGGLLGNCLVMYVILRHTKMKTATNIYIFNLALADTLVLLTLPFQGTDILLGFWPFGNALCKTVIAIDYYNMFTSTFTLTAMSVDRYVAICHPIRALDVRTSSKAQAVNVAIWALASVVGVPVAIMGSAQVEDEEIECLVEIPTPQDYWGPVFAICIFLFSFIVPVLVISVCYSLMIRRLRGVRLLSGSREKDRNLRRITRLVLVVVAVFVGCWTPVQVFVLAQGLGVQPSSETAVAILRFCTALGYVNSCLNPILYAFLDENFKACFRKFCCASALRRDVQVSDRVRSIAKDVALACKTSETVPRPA

[2] = In vitro stability in heparinised human plasma; assay type: in vitro ADME
Method: In addition, the degradation of Compound 1 of the invention has been studied in heparinised human plama.
The stability of peptides is analysed in human plasma. The peptides are incubated at 37° C. in plasma and samples taken at approx. 8 regular intervals between t=0 and t=390 min for Compound 1 and nociceptin-NH2, and at 9 intervals between t=0 and t=32 min for Compound CE1 are analysed by HPLC. […] This is done by subsequent injections of the drug, plasma, and a co-injection with the drug and the plasma, followed by optimisation of the LC method parameters until a satisfactory separation is obtained. Three parallel experiments are performed for each plasma type. 100 μl of peptide is mixed with 900 μl plasma at t=0 and incubated at 37° C. (drug-plasma mixture conc. 0.1 mg/ml). Samples of 100 μl of the drug-plasma mixture are removed at appropriate intervals and the degradation stopped by precipitation of the sample with 10 μl MeCN:TFA 50:50 v/v. A control plasma sample without the drug treated in the same manner is also taken. The plasma samples are centrifuged for 15 min. at 12,000 rpm (Eppendorf centrifuge) at ambient temperature. The resulting supernatant solution is transferred to 300 μl HP autosamler vials and analyzed by HPLC. HPLC analysis are performed as follows:
Ac-RYYRWK-NH2 (SEQ ID NO: 1) and Compound 1
The samples are analysed in the following order: blank, the peptide at 0.1 mg/mL, the plasma without the peptide, the three parallel samples for t=0, the three parallel samples for t=5 min. the three parallel samples for t=60 min. etc. And finally the three parallel samples for t=0 are repeated to make sure that there have been no degradation or other failure during the analyses. The sample concentrations (peak height in mAU) are plotted vs. time and fitted to a function describing a mono exponential decay (Excel). The half-lives of the peptides in plasma are presented in Table 7 as mean (n=3)±standard deviation.

mouse vas deferens = assay: Mouse vas deferens assay: inhibition of electrically-induced contraction; details: cumulative addition; data not shown
Source text: The compounds of the present invention are pharmacologically active, e.g. as nociceptin agonists or partial agonists, and a useful method of showing activity is described by Hughes J., Kosterlitz H. W., Leslie F. M.: Effect of morphine on adrenergic transmission in the mouse vas deferens. Assessment of agonist and antagonist potencies of narcotic analgesics^[4]. The isolated electrically stimulated mouse vas deferens preparation has been widely used to evaluate the functional pharmacological actions of opioid agonists and antagonists in vitro^[5].
The vas deferens from male NMRI albino mice weighing 30-40 g were placed in a SCHULER organ bath Type 809, Hugo Sachs Elektronik, Germany, and perfused with a 37° C., modified Krebs solution (NaCl 6,9 g/L, KCl 0.35 g/L, KH2PO4 0.16 g/L, NaHCO3 2.1 g/L, Glucose H2O 2.0 g/L, CaCl2 2.52 mL/L). The solution was gassed with carbogen (95% O2 and 5% CO2) throughout the experiment. The tissue was electrically stimulated through two silver electrodes directly in the organ bath using a HSE Stimulator I Type 215. Stimulation of the tissue was performed by applying a supramaximal voltage (15 Volts) in trains of 10 square pulses every 60 s, each of 1 ms duration with a frequency of […]. Concentration-response curves were performed by adding test substances that relax mouse vas deferens smooth muscles cumulatively to the organ baths. The test substances used in the assay were nociceptin in an isotonic saline solution, Compound 1 (as the trifluoroacetate in an isotonic saline solution), Compound 2 (as the trifluoroacetate in an isotonic saline solution), and the hexapeptide Ac-RYYRWK-NH2 (SEQ ID NO: 1) (as the trifluoroacetate in an isotonic saline solution).

Ac-RYYRWKKKKKKK-NH2 [Compound 1, Ac-RYYRWKKKKKKK-NH2]
half-life at 0.1 mg/mL [1]: 5.97 h | relative maximum relative to nociceptin (hORL1 receptor): 92% | half-life at 0.1 mg/ml ([2]; 37° C., mean (n=3) +/− deviation, read-out: T1/2 in min (degradation in human heparinised plasma)): 16.2 h | half-life at 0.1 mg/ml ([2]; read-out: half life in plasma): > 16 h | potency order for inhibition of electrically-induced contraction of the mouse vas deferens (mouse vas deferens): nociceptin>Compound 1=Compound 2>>Ac-RYYRWK-NH2
